# Measurements from US20080286315A1, “Methionine Enkephalin as an Adjuvant for Vaccine Immunizations” (Penta Biotech, Inc., priority 2007, published 2008).
# How the values were obtained:
# Format in all cases: cell-based, IRM-2 mice
# cultured dendritic cells = assay: IL-12 levels in supernatants of cultured dendritic cells (IL-12 ELISA); conditions: supernatant day 9
# Procedure: (§1) Immature dendritic cells were isolated from spleens of IRM-2 mice with lymphocyte separation solution. The method used was adapted from a method of isolating lymphocytes using a centrifugation technique. First, diluted defibrinated blood was layered on a solution of sodium metrizoate and Dextran or Ficoll® and centrifuged at low speeds for 30 minutes. […] Mononuclear cells (lymphocytes and monocytes) and platelets are contained in the banded plasma-lymphocyte separation medium interphase due to their density. Erythrocytes and granulocytes migrate through the gradient and form a pellet to the bottom of the tube. Lymphocytes were recovered by aspirating the plasma layer and removing the cells. After proper washing and treatment, cells were suspended in RPMI-1640 containing 10% FCS and incubated in a CO2-incubator (37° C., 5% CO2) for 2 hours before use.
# (§2) The immature dendritic cells were divided into 6 groups and were centrifuged to remove the supernatants. RPMI-1640 containing 10 ng/ml IL-4, 100 ng/ml GM-CSF, 10% FCS, and MEK at either 0 ng/ml, 7.5 ng/ml, 15 ng/ml, 30 ng/ml, 60 ng/ml or 120 ng/ml was then added to the cells. The final cell density was 2×10^5 cells/ml. Cells were returned to the CO2-incubator and the media were replaced in half volumes every other day starting on the 3rd day. Cells were allowed to grow for 9 days and thereafter cell numbers were counted with an inverted phase-contrasted microscope. The group of cells having the highest density was regarded as having the most optimum conditions in terms of concentration for cytokines. Cell density was determined using the MTT [3-(4,5-Dimethylthiazol-2-yl)-2,5-Diphenyltetrazolium Bromide] assay, using methods known in the art. MEK facilitated the growth and multiplication of dendritic cells in a concentration dependent fashion. The effects were greatest with a MEK concentration at around 60 ng/ml and then decreased thereafter as MEK concentration increased.
# To further characterize the cultured cells, cell culture supernatants were collected on the 9th day of incubation and were assayed according to the procedures defined in the IL-12 ELISA Assay Kit obtained from eBioscience, USA. IL-12 is a cytokine known to be secreted by mature dendritic cells.
# immature dendritic cells = assay: Dendritic cell density and proliferation with different concentrations of MEK (cell counting / MTT assay); conditions: for Cell Density: 9 days culture with IL-4 and GM-CSF; for Increase Percent: control = 100.0
# Procedure: as §1, §2
# dendritic cells [1] = assay: Micrographs of dendritic cells (400x); conditions: 60 ng/ml MEK; with IL-4 and GM-CSF
# Excerpt: FIGS. 1 and 2 show micrographs of dendritic cells magnified 400×. Cells were isolated and cultured as described above.
# dendritic cells [2] = assay: Dendritic cell surface marker expression (FITC antibodies to CD11c and CD80, flow cytometry); conditions: day 9
# Procedure: as §1, §2
# Cells isolated and cultured as described above were processed on the 9th day with the addition of FITC labeled antibodies to CD11c and CD80. CD11c is the most specific cell surface marker for mature dendritic cells. CD80 is another marker that is expressed on mature dendritic cells. Stained cells were analyzed with a flow cell cytometer and cells expressing fluorescence markers were regarded as positive. The positive rates were analyzed and calculated using Bios Consort 30 software.
smiles,measurement,setting,value
"CSCC[C@H](NC(=O)[C@@H](Cc1ccccc1)NC(=O)CNC(=O)CNC(=O)[C@H](N)Cc1ccc(O)cc1)C(=O)O [MEK, methionine enkephalin]",IL-12 Level,"cultured dendritic cells; MEK 7.5 ng/ml, control 68",102 ± 1.1 pg/mL
same,IL-12 Level,cultured dendritic cells; MEK 15 ng/ml,126 ± 0.4 pg/mL
same,IL-12 Level,cultured dendritic cells; MEK 30 ng/ml,175 ± 1.6 pg/mL
same,IL-12 Level,cultured dendritic cells; MEK 60 ng/ml,256 ± 0.3 pg/mL
same,IL-12 Level,cultured dendritic cells; MEK 120 ng/ml,227 ± 1.9 pg/mL
same,Cell Density,"immature dendritic cells; MEK 7.5 ng/ml, start 2x10^5 cells/ml",2.2 ± 0.1 10^5/ml
same,Increase Percent,immature dendritic cells; MEK 7.5 ng/ml,127.1%
same,Cell Density,immature dendritic cells; MEK 15 ng/ml,2.5 ± 0.2 10^5/ml
same,Increase Percent,immature dendritic cells; MEK 15 ng/ml,133.3%
same,Cell Density,immature dendritic cells; MEK 30 ng/ml,2.9 ± 1.2 10^5/ml
same,Increase Percent,immature dendritic cells; MEK 30 ng/ml,159.2%
same,Cell Density,immature dendritic cells; MEK 60 ng/ml,4.8 ± 0.2 10^5/ml
same,Increase Percent,immature dendritic cells; MEK 60 ng/ml,246.5%
same,Cell Density,immature dendritic cells; MEK 120 ng/ml,3.1 ± 0.1 10^5/ml
same,Increase Percent,immature dendritic cells; MEK 120 ng/ml,165.5%
same,MEK concentration with greatest effect on growth and multiplication of dendritic cells,"immature dendritic cells; tested 7.5-120 ng/ml, concentration dependent",around 60 ng/ml
same,cell density in micrographs versus cells not treated with MEK,dendritic cells [1],increase in cell density
same,cell processes (veils or dendrites) on the dendritic cells versus cells not treated with MEK,dendritic cells [1],increase in cell processes
same,CD11C(+) %,"dendritic cells [2]; MEK 7.5 ng/ml, control 47.2",49.9%
same,CD80(+) %,"dendritic cells [2]; MEK 7.5 ng/ml, control 50.3",51.3%
same,CD11C(+) %,dendritic cells [2]; MEK 15 ng/ml,51.3%
same,CD80(+) %,dendritic cells [2]; MEK 15 ng/ml,54.1%
same,CD11C(+) %,dendritic cells [2]; MEK 30 ng/ml,55.6%
same,CD80(+) %,dendritic cells [2]; MEK 30 ng/ml,58.7%
same,CD11C(+) %,dendritic cells [2]; MEK 60 ng/ml,62.7%
same,CD80(+) %,dendritic cells [2]; MEK 60 ng/ml,64.6%
same,CD11C(+) %,dendritic cells [2]; MEK 120 ng/ml,57.3%
same,CD80(+) %,dendritic cells [2]; MEK 120 ng/ml,63.3%
